According to patent US11427586B2, “1,2,4-oxadiazole derivatives as liver X receptor agonists” (NOVARTIS AG, priority 2019, dated 2022):
Like-named read-outs stand apart in the source and are kept apart here.

Tests used:
SCD1 = assay: Measurement of SCD1 expression in SZ95-SCD1-HiBit cells (HiBiT assay); format: cell-based; conditions: Homo sapiens, 48 h; for EC50: SCD1 protein production, luminescence, initial dilution 1:3 in DMSO, read-out: HiBit EC50
Text: Measurement of SCD1 Expression in SZ95-SCD1-HiBit Cells
SCD1 expression levels in SZ95 cells were quantitated using the HiBiT system (Promega) in which a small peptide sequence (SmBiT) with a larger protein (LgBiT) reconstitutes luciferase activity and can generate a luminescent signal used for quantitation. SZ95-SCD1-HiBit cells were generated by editing the SCD1 gene of SZ95 cells resulting in the addition of an 8 amino acid linker sequence (gssggssg, SEQ ID NO:1) followed by an 11-amino acid SmBiT sequence (vsgwrlfkkis, SEQ ID NO:2) at the carboxy-terminus of the SCD1 protein. The gRNA targeting sequence used was […] (SEQ ID NO: 3) and the SCD1 insertion oligonucleotide encoding the SmBiT sequence was:
SZ95-SCD1-HiBit cells were seeded in 384-well cell culture white plates at a density of 3000 cells/30 μl. Water was added to edge wells to avoid evaporation. Cells were incubated in a humidified incubator with 5% CO2 at 37° C. overnight. Tested compounds were diluted at a ratio of 1:3 in DMSO using an Agilent BRAVO Automated Liquid Handling Platform and, after further serial dilutions, added to cells at final concentrations starting from 18 μM. 2-(3-(3-((2-chloro-3-(trifluoromethyl)benzyl)(2,2-diphenylethyl)amino)propoxy)phenyl)acetic acid was used as a reference compound in each plate. Cells in the assay plate were incubated in a humidified incubator with 5% CO2 at 37° C. for 48 h.
The assay plates were removed from the incubator and allowed to equilibrate to room temperature. Nano-Glo® HiBiT Detection Reagent (Promega; a mixture of Nano-Glo HiBiT Detection Buffer, Nano-Glo HiBiT Detection Substrate, and LgBiT protein, according to the manufacturer's instructions) was added into assay plates, at a volume equal to cell culture medium in each well. Plates were placed on an orbital shaker at a speed of 300-600 rpm for 10 min at room temperature, and read on an EnVision Plate Reader using luminescence detection with a 1 second read time.
The assay measures the increase in SCD1 protein production in vitro. Amax refers to the percent EC50 of the tested compound compared to a reference compound, 2-(3-(3-((2-chloro-3-(trifluoromethyl)benzyl)(2,2-diphenylethyl)amino)propoxy)phenyl)acetic acid.

SZ95 sebocytes = assay: Sentinel Lipid Assay (SLA), desaturation index in SZ95 sebocytes; format: cell-based; conditions: Homo sapiens, 72 h; for EC50: desaturation index, lowest dose used 4.6 nM, read-out: SLA EC50
Description: Sentinel Lipid Assay (SLA)
The sentinel lipid assay was used quantify the change in the global desaturation index in SZ95 sebocytes upon administration of certain LXR agonist compounds provided herein. The assay measures a smaller subset of lipid analytes in meibum (termed “sentinel lipids”) which would model the global changes the population of both saturated and desaturated lipids in the cells. In order to define this smaller subset of lipids, a complete lipid profile was recorded on dose response curves (eight levels from 4 nM to 10 uM) of Compounds 1-72. An elastic net regression model was applied separately to both the saturated and desaturated lipids to determine the minimum combination of coefficients and analytes, which could be used to adequately model the total population of lipids. The elastic net model was able to reduce the behavior of 425 lipids to 11 lipids and the correlation between the desaturation indices observed using the complete set of lipids with from the 11 sentinel lipids was 0.96.
A medium throughput assay was created using this reduced set of sentinel lipids. A single batch is defined as triplicate examples of three unique plates (i.e., a single batch of cells is used to create nine plates for LC-MSMS analysis). Lipids were extracted from the cells using a 1:1 mixture of methylene chloride/methanol containing 10 nM of deuterated standards of triglycerides, which are used as internal standards for quantitating the lipid abundance. The lipids were separated prior to mass spectrometric analysis using a five minute HPLC gradient. The abundance of the sentinel lipids and the internal standards are measured using multiple reaction monitor mode (MRM) on a triple quadrupole mass spectrometer. The data was transformed from total ion current to nmoles/10^6 cells, which are multiplied by the coefficients from the elastic net model to determine the effective desaturated and saturated content, and therein the desaturation index of the dosed cells. In order to compare compounds from multiple batches with one another, the measure raw desaturation index was normalized by dividing it by the desaturation index of the DMSO dosed cells, and all data was assessed as the fraction by which the compound increases the desaturation index above 1.
SZ95 (immortalized human sebaceous gland cells) cells were seeded in Greiner bio-one 96-well polypropylene plates that were pre-treated with 50 μg/mL Human Plasma Fibronectin (Thermo Fisher Scientific) at a density of 10^4 cells/135 μl. Cells were incubated in a humidified incubator with 5% CO2 at 37° C. overnight. Test compounds were diluted at a ratio of 1:3 and added to cells at final concentrations starting from 10 μM. 2-(3-(3-((2-chloro-3-(trifluoromethyl)benzyl)(2,2-diphenylethyl)amino)propoxy)phenyl)acetic acid was used as a positive control reference compound in each plate. Cells in the assay plate were incubated in a humidified incubator with 5% CO2 at 37° C. for 72 h.
Culture medium was removed from the cells and cells in culture plates were washed with ice cold phosphate buffered saline three times. Plates were heat sealed and stored in a −80° C. freezer prior to Sentinel lipid assay. The Amax value refers to the percent EC50 of the tested compound compared to a reference compound, 2-(3-(3-((2-chloro-3-(trifluoromethyl)benzyl)(2,2-diphenylethyl)amino)propoxy)phenyl)acetic acid.

[1] = normalized Amax based on the reference compound Amax of 100%, read-out: HiBit Normalized Amax
[2] = SZ95-SCD1-HiBit cells, compared to reference compound, read-out: HiBit Amax
[3] = normalized Amax based on the reference compound Amax of 100%, read-out: SLA Normalized Amax
[4] = SZ95 cells, compared to reference compound, read-out: SLA Amax

SMILES: CC(C)N(C)S(=O)(=O)c1ccccc1Oc1ccc(-c2noc(CN3C(=O)N(CCC4CCOCC4)C(C)(C)C3=O)n2)cc1C(F)(F)F [Compound 5, 2-(4-(5-((4,4-dimethyl-2,5-dioxo-3-(2-(tetrahydro-2H-pyran-4-yl)ethyl)imidazolidin-1-yl)methyl)-1,2,4-oxadiazol-3-yl)-2-(trifluoromethyl)phenoxy)-N-isopropyl-N-methylbenzenesulfonamide]
- Emax (SCD1; [1]): 87.7%
- EC50 (SCD1; SZ95-SCD1-HiBit cells): 0.056 nM
- Emax (SCD1; [2]): 83.4%
- Emax (SZ95 sebocytes; [3]): 152%
- EC50 (SZ95 sebocytes; SZ95 cells): ≤ 4.6 nM
- Emax (SZ95 sebocytes; [4]): 146%

SMILES: CC(C)CS(=O)(=O)c1ccccc1Oc1ccc(-c2noc(CN3C(=O)N(CCC4(O)CCOCC4)C(C)(C)C3=O)n2)cc1C(F)(F)F [Compound 6, 1-(2-(4-hydroxytetrahydro-2H-pyran-4-yl)ethyl)-3-((3-(4-(2-(isobutylsulfonyl)phenoxy)-3-(trifluoromethyl)phenyl)-1,2,4-oxadiazol-5-yl)methyl)-5,5-dimethylimidazolidine-2,4-dione]
- Emax (SCD1; [1]): 69.8%
- EC50 (SCD1; SZ95-SCD1-HiBit cells): 43.6 nM
- Emax (SCD1; [2]): 66.4%
- Emax (SZ95 sebocytes; [3]): 101%
- EC50 (SZ95 sebocytes; SZ95 cells): 37.5 nM
- Emax (SZ95 sebocytes; [4]): 96.7%

SMILES: CC(C)(C)c1ccccc1Oc1ccc(-c2noc(CN3C(=O)N(CCC4CCOCC4)C4(CCN(C5CCC5)CC4)C3=O)n2)cc1C(F)(F)F [Compound 7, 3-((3-(4-(2-(tert-butyl)phenoxy)-3-(trifluoromethyl)phenyl)-1,2,4-oxadiazol-5-yl)methyl)-8-cyclobutyl-1-(2-(tetrahydro-2H-pyran-4-yl)ethyl)-1,3,8-triazaspiro[4.5]decane-2,4-dione]
- Emax (SCD1; [1]): 90%
- EC50 (SCD1; SZ95-SCD1-HiBit cells): 0.128 nM
- Emax (SCD1; [2]): 85.6%
- Emax (SZ95 sebocytes; [3]): 110%
- EC50 (SZ95 sebocytes; SZ95 cells): ≤ 4.6 nM
- Emax (SZ95 sebocytes; [4]): 105%

SMILES: CC(C)CS(=O)(=O)c1ccccc1Oc1ccc(-c2noc(CN3C(=O)N(CCN4CCOCC4)C4(CCNCC4)C3=O)n2)cc1C(F)(F)F [Compound 9, 3-((3-(4-(2-(isobutylsulfonyl)phenoxy)-3-(trifluoromethyl)phenyl)-1,2,4-oxadiazol-5-yl)methyl)-1-(2-morpholinoethyl)-1,3,8-triazaspiro[4.5]decane-2,4-dione]
- Emax (SCD1; [1]): 98.1%
- EC50 (SCD1; SZ95-SCD1-HiBit cells): 3.3 nM
- Emax (SCD1; [2]): 93.3%
- Emax (SZ95 sebocytes; [3]): 147%
- EC50 (SZ95 sebocytes; SZ95 cells): ≤ 4.6 nM
- Emax (SZ95 sebocytes; [4]): 142%

SMILES: CC(C)CS(=O)(=O)c1ccccc1Oc1ccc(-c2noc(CN3C(=O)N(CCN4CCOCC4)C4(CCN(C)CC4)C3=O)n2)cc1C(F)(F)F [Compound 10, 3-((3-(4-(2-(isobutylsulfonyl)phenoxy)-3-(trifluoromethyl)phenyl)-1,2,4-oxadiazol-5-yl)methyl)-8-methyl-1-(2-morpholinoethyl)-1,3,8-triazaspiro[4.5]decane-2,4-dione]
- Emax (SCD1; [1]): 111%
- EC50 (SCD1; SZ95-SCD1-HiBit cells): 0.079 nM
- Emax (SCD1; [2]): 106%
- Emax (SZ95 sebocytes; [3]): 129%
- EC50 (SZ95 sebocytes; SZ95 cells): ≤ 4.6 nM
- Emax (SZ95 sebocytes; [4]): 124%

SMILES: CC(C)N(C)S(=O)(=O)c1ccccc1Oc1ccc(-c2noc(CN3C(=O)N(CCN4CCOCC4)C4(CCN(C5CCC5)CC4)C3=O)n2)cc1C(F)(F)F [Compound 11, 2-(4-(5-((8-cyclobutyl-1-(2-morpholinoethyl)-2,4-dioxo-1,3,8-triazaspiro[4.5]decan-3-yl)methyl)-1,2,4-oxadiazol-3-yl)-2-(trifluoromethyl)phenoxy)-N-isopropyl-N-methylbenzenesulfonamide]
- Emax (SCD1; [1]): 95.9%
- EC50 (SCD1; SZ95-SCD1-HiBit cells): 0.058 nM
- Emax (SCD1; [2]): 91.2%
- Emax (SZ95 sebocytes; [3]): 140%
- EC50 (SZ95 sebocytes; SZ95 cells): ≤ 4.6 nM
- Emax (SZ95 sebocytes; [4]): 134%

SMILES: O=C1N(Cc2nc(-c3ccc(Oc4ccccc4C(F)(F)F)c(C(F)(F)F)c3)no2)C(=O)C2(CCN(C3CCC3)CC2)N1CCC1CCOCC1 [Compound 12, 8-cyclobutyl-1-(2-(tetrahydro-2H-pyran-4-yl)ethyl)-3-((3-(3-(trifluoromethyl)-4-(2-(trifluoromethyl)phenoxy)phenyl)-1,2,4-oxadiazol-5-yl)methyl)-1,3,8-triazaspiro[4.5]decane-2,4-dione]
- Emax (SCD1; [1]): 81.9%
- EC50 (SCD1; SZ95-SCD1-HiBit cells): 0.081 nM
- Emax (SCD1; [2]): 77.9%
- Emax (SZ95 sebocytes; [3]): 130%
- EC50 (SZ95 sebocytes; SZ95 cells): ≤ 4.6 nM
- Emax (SZ95 sebocytes; [4]): 125%

SMILES: O=C1N(Cc2nc(-c3ccc(Oc4ccccc4C(F)(F)F)c(C(F)(F)F)c3)no2)C(=O)C2(CCN(C3CCC3)CC2)N1CCN1CCOCC1 [Compound 13, 8-cyclobutyl-1-(2-morpholinoethyl)-3-((3-(3-(trifluoromethyl)-4-(2-(trifluoromethyl)phenoxy)phenyl)-1,2,4-oxadiazol-5-yl)methyl)-1,3,8-triazaspiro[4.5]decane-2,4-dione]
- Emax (SCD1; [1]): 82.2%
- EC50 (SCD1; SZ95-SCD1-HiBit cells): 0.102 nM
- Emax (SCD1; [2]): 78.2%
- Emax (SZ95 sebocytes; [3]): 94.5%
- EC50 (SZ95 sebocytes; SZ95 cells): ≤ 4.6 nM
- Emax (SZ95 sebocytes; [4]): 90.7%

SMILES: CC(COc1ccc(-c2noc(CN3C(=O)N(CCN4CCOCC4)C4(CCN(C5CCC5)CC4)C3=O)n2)cc1C(F)(F)F)(C(F)(F)F)C(F)(F)F [Compound 14, 8-cyclobutyl-1-(2-morpholinoethyl)-3-((3-(4-(3,3,3-trifluoro-2-methyl-2-(trifluoromethyl)propoxy)-3-(trifluoromethyl)phenyl)-1,2,4-oxadiazol-5-yl)methyl)-1,3,8-triazaspiro[4.5]decane-2,4-dione]
- Emax (SCD1; [1]): 91%
- EC50 (SCD1; SZ95-SCD1-HiBit cells): 0.241 nM
- Emax (SCD1; [2]): 86.5%
- Emax (SZ95 sebocytes; [3]): 130%
- EC50 (SZ95 sebocytes; SZ95 cells): ≤ 4.6 nM
- Emax (SZ95 sebocytes; [4]): 125%

SMILES: CS(=O)(=O)c1ccccc1Oc1ccc(-c2noc(CN3C(=O)N(CCN4CCOCC4)C4(CCN(C5CCC5)CC4)C3=O)n2)cc1C(F)(F)F [Compound 15, 8-cyclobutyl-3-((3-(4-(2-(methylsulfonyl)phenoxy)-3-(trifluoromethyl)phenyl)-1,2,4-oxadiazol-5-yl)methyl)-1-(2-morpholinoethyl)-1,3,8-triazaspiro[4.5]decane-2,4-dione]
- Emax (SCD1; [1]): 88.3%
- EC50 (SCD1; SZ95-SCD1-HiBit cells): 0.101 nM
- Emax (SCD1; [2]): 84%
- Emax (SZ95 sebocytes; [3]): 121%
- EC50 (SZ95 sebocytes; SZ95 cells): ≤ 4.6 nM
- Emax (SZ95 sebocytes; [4]): 116%

SMILES: CC(C)(C)c1ccccc1Oc1ccc(-c2noc(CN3C(=O)N(CCN4CCOCC4)C4(CCN(C5CCC5)CC4)C3=O)n2)cc1C(F)(F)F [Compound 16, 3-((3-(4-(2-(tert-butyl)phenoxy)-3-(trifluoromethyl)phenyl)-1,2,4-oxadiazol-5-yl)methyl)-8-cyclobutyl-1-(2-morpholinoethyl)-1,3,8-triazaspiro[4.5]decane-2,4-dione]
- Emax (SCD1; [1]): 94.8%
- EC50 (SCD1; SZ95-SCD1-HiBit cells): 0.116 nM
- Emax (SCD1; [2]): 90.2%
- Emax (SZ95 sebocytes; [3]): 146%
- EC50 (SZ95 sebocytes; SZ95 cells): ≤ 4.6 nM
- Emax (SZ95 sebocytes; [4]): 140%
